Here are results for one molecule from US20200138825A1, “METHOD OF TREATING MALIGNANT RHABDOID TUMOR OF THE OVARY (MRTO)/SMALL CELL CANCER OF THE OVARY OF THE HYPERCALCEMIC TYPE(SCCOHT) WITH AN EZH2 INHIBITOR” (Epizyme, Inc., priority 2015, published 2020).

Holding throughout (type): cell-based
Assay [1] concerns SMARCA4-negative ovarian cell lines. Put plainly: Long term 2D proliferation assay, SMARCA4-negative ovarian cell lines. Particulars: day 14, SMARCA4-negative cell lines. As to the method:
(§1) FIG. 13B is a pair of graphs depicting the results of a long term 2D proliferation assay for Compound D in SMARCA4 and ARID1A ovarian cell lines. The day 14 IC50 values are shown.
(§2) A panel of ovarian cancer cell lines of different histologies was subjected to proliferation assays in 2-D tissue culture for 14 days in the presence of increasing concentrations of an EZH2 inhibitor. Selected cell lines were also tested in 3-D cultures. […] In contrast, mutations in ARID1A, another SWI/SNF component, were not observed to broadly confer sensitivity to EZH2 inhibition in ovarian cancer cell lines in either 2-D or 3-D in vitro assays.

In assay [2] the test system is ARID1A mutated ovarian cell lines. Put plainly: Long term 2D proliferation assay, ARID1A mutated ovarian cell lines. Particulars: day 14, ARID1A mutated ovarian cell lines. As to the method: as §1, §2
Another assay has as its system SCCOHT cell line Bin-67. The assay can be described thus: 14 day proliferation study in Bin-67. Particulars: 336 h; Bin-67, 14 day proliferation, 0.01-10 μM. As to the method: FIG. 13C is a graph displaying the results of a 14 day proliferation study with Compound D in the SMARCA4- and SMARCA2-negative small cell carcinoma of the ovary, hypercalcemic type (SCCOHT) cell line Bin-67. Growth curves are shown for 8 different treatment conditions ranging from 0.01-10 μM.
as §2

In the next assay the test system is H3K27me3 in Bin-67 cells. Put plainly: Western Blot of H3K27me3 levels in Bin-67 cells. As to conditions: day 14, all concentrations.
For assay [3], the system named is ARID1A-mutated ovarian cell lines. The assay can be described thus: 3D growth assay (Scivax Nanoculture), ARID1A-mutated ovarian cell lines. As to conditions: after 14 days. As to the method:
3D assays were performed using the Scivax Nanoculture technology whereby the micro-patterned scaffold mimics the ECM.
as §2

The test system of a further assay is SCCOHT cell lines. The assay can be described thus: 14-day proliferation assays, SCCOHT cell lines. As to conditions: 336 h, three SCCOHT cell lines. As to the method: as §2
The test system of another assay is A427. The assay can be described thus: EZH2 inhibition sensitivity, A427. Particulars: Homo sapiens, A-427, SMARCA2 mRNA/protein loss, SMARCA4 Mutations, KRAS Mutations, read-out: Compound D IC50. The text has this:
(§3) Sensitivity to EZH2 inhibition was examined in various cancer cell lines with similar mutations or loss of SWI/SNF components. Table 7 summarizes the EZH2 activity in additional SWI/SNF altered cancers, including lung adenocarcinoma.

The test system of another assay is NCl-H23. The assay can be described thus: EZH2 inhibition sensitivity, NCl-H23. As to conditions: SMARCA2 mRNA/protein loss, SMARCA4 Mutations, KRAS Mutations, read-out: Compound D IC50.
Text: as §3

A further assay deals with NCl-H522. The assay can be described thus: EZH2 inhibition sensitivity, NCl-H522. As to conditions: SMARCA2 mRNA/protein loss, SMARCA4 Mutations, KRAS No mutations or info not available, read-out: Compound D IC50.
Text: as §3

The subject of the next assay is A549. Put plainly: EZH2 inhibition sensitivity, A549 (Proquinase 3D). Particulars: Homo sapiens, Proquinase 3D IC50, SMARCA4 Mutations, KRAS Mutations, read-out: Compound D IC50.
Text: as §3

For a further assay, the system named is NCl-H1299. The assay can be described thus: EZH2 inhibition sensitivity, NCl-H1299. As to conditions: SMARCA4 Mutations, read-out: Compound D IC50.
Text: as §3

For the next assay, the system named is NClH838. The assay can be described thus: EZH2 inhibition sensitivity, NClH838. As to conditions: SMARCA4 Mutations, read-out: Compound D IC50.
Text: as §3

A further assay relates to NClH1793. Put plainly: EZH2 inhibition sensitivity, NClH1793. Particulars: SMARCA4 Mutations, read-out: Compound D IC50.
Text: as §3

For a further assay, the system named is Calu-6. Put plainly: EZH2 inhibition sensitivity, Calu-6. As to conditions: Homo sapiens, KRAS Mutations, read-out: Compound D IC50.
Text: as §3

In another assay the test system is NCl-H441. Put plainly: EZH2 inhibition sensitivity, NCl-H441 (Proquinase 3D). Particulars: Proquinase 3D IC50, KRAS Mutations, read-out: Compound D IC50.
Text: as §3

The next assay relates to H460. The assay can be described thus: EZH2 inhibition sensitivity, H460 (Proquinase 3D). As to conditions: Homo sapiens, NCI-H460, Proquinase 3D IC50, KRAS Mutations, read-out: Compound D IC50.
Text: as §3

The subject of the next assay is NClH2122. The assay can be described thus: EZH2 inhibition sensitivity, NClH2122. Particulars: KRAS Mutations, read-out: Compound D IC50.
Text: as §3

The test system of a further assay is NClH1734. Put plainly: EZH2 inhibition sensitivity, NClH1734. As to conditions: KRAS Mutations, read-out: Compound D IC50.
Text: as §3

The test system of another assay is NClH1373. The assay can be described thus: EZH2 inhibition sensitivity, NClH1373. As to conditions: KRAS Mutations, read-out: Compound D IC50.
Text: as §3

In another assay the test system is NClH1993. The assay can be described thus: EZH2 inhibition sensitivity, NClH1993. As to conditions: no mutations or info not available in SMARCA2, SMARCA4, KRAS, read-out: Compound D IC50.
Text: as §3

For another assay, the system named is NClH2110. Put plainly: EZH2 inhibition sensitivity, NClH2110. Particulars: no mutations or info not available in SMARCA2, SMARCA4, KRAS, read-out: Compound D IC50.
Text: as §3

The subject of the next assay is Calu-3. The assay can be described thus: EZH2 inhibition sensitivity, Calu-3. Particulars: Homo sapiens, no mutations or info not available in SMARCA2, SMARCA4, KRAS, read-out: Compound D IC50.
Text: as §3

The test system of a further assay is NClH1563. Put plainly: EZH2 inhibition sensitivity, NClH1563. Particulars: no mutations or info not available in SMARCA2, SMARCA4, KRAS, read-out: Compound D IC50.
Text: as §3

The test system of the next assay is HCC827. The assay can be described thus: EZH2 inhibition sensitivity, HCC827 (Proquinase 3D). Particulars: Homo sapiens, Proquinase 3D IC50, no mutations or info not available in SMARCA2, SMARCA4, KRAS, read-out: Compound D IC50.
Text: as §3

By IC50 is commonly meant the concentration that inhibits the measured activity by half. Take `CCN(c1cc(-c2ccc(CN3CCOCC3)cc2)cc(C(=O)NCc2c(C)cc(C)[nH]c2=O)c1C)[C@H]1CC[C@H](N(C)C)CC1` [Compound D]: the anti-proliferative effects result in assay [1] was “anti-proliferative effects”; in assay [2], “do not”. Besides, the IC50 was 0.01 µM with SCCOHT cell line Bin-67; 0.005 to 0.017 µM in the assay with SCCOHT cell lines; 2.3 µM with A427; 10 µM in the assay with NCl-H23; 1.14 µM in the assay on NCl-H522; 10 µM with A549. Further, the IC50 came out at 10 µM in the assay on NCl-H1299; 10 µM in the assay on NClH838; 10 µM in the assay with NClH1793; 0.001 µM in the assay with Calu-6; 10 µM with NCl-H441; 10 µM in the assay on H460. The IC50 with NClH2122, with NClH1734, with NClH1373, in the assay on NClH1993, in the assay with NClH2110 and in the assay with Calu-3 was 10 µM in each case. The IC50 with NClH1563 and with HCC827 was 10 µM in each case. Besides, the H3K27me3 levels entry in the assay with H3K27me3 in Bin-67 cells is listed as “completely reduced”. The 3D growth effects entry in [3] is reported as “No effects were observed”.
